Reference: ChEMBL document CHEMBL1201862, “PubChem BioAssay data set” (2004)
Each block holds one molecule with its values, some of them ahead of it. Active and inactive are the calls of the source.

Experiments:
[1] = molecular target: Induced myeloid leukemia cell differentiation protein Mcl-1 (Homo sapiens, UniProt Q07820); type: functional
Kallikrein-7 = Kallikrein-7 (Homo sapiens, UniProt P49862); experiment: Fluorescence Intensity-based biochemical primary high throughput dose response assay to identify activators of kallikrein-7 (K7) zymogen.
Caspase-6 = molecular target: T1, Caspase-6 (Homo sapiens, UniProt P55212); experiment: inhibition of CASP6 peptide cleavage – biochemical, VEID-R110 fluorescence, cherry-pick, dose response (AID 720632)
T1 sequence (P55212 whole entry): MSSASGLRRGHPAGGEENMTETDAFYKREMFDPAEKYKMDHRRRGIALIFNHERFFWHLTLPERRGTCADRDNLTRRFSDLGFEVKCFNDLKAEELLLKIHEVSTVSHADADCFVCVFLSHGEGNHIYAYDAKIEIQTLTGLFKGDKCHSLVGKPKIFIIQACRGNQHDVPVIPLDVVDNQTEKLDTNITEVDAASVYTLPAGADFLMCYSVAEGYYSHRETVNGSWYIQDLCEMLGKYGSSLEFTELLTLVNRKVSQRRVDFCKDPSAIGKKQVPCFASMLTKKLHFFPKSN

[2] = molecular target: T2, 1-phosphatidylinositol 4,5-bisphosphate phosphodiesterase beta-3 (Homo sapiens, UniProt Q01970); experiment: Fluorescence-based biochemical high throughput dose response assay to identify inhibitors of phospholipase C isozymes (PLC-B3).
T2 sequence (Q01970 whole entry): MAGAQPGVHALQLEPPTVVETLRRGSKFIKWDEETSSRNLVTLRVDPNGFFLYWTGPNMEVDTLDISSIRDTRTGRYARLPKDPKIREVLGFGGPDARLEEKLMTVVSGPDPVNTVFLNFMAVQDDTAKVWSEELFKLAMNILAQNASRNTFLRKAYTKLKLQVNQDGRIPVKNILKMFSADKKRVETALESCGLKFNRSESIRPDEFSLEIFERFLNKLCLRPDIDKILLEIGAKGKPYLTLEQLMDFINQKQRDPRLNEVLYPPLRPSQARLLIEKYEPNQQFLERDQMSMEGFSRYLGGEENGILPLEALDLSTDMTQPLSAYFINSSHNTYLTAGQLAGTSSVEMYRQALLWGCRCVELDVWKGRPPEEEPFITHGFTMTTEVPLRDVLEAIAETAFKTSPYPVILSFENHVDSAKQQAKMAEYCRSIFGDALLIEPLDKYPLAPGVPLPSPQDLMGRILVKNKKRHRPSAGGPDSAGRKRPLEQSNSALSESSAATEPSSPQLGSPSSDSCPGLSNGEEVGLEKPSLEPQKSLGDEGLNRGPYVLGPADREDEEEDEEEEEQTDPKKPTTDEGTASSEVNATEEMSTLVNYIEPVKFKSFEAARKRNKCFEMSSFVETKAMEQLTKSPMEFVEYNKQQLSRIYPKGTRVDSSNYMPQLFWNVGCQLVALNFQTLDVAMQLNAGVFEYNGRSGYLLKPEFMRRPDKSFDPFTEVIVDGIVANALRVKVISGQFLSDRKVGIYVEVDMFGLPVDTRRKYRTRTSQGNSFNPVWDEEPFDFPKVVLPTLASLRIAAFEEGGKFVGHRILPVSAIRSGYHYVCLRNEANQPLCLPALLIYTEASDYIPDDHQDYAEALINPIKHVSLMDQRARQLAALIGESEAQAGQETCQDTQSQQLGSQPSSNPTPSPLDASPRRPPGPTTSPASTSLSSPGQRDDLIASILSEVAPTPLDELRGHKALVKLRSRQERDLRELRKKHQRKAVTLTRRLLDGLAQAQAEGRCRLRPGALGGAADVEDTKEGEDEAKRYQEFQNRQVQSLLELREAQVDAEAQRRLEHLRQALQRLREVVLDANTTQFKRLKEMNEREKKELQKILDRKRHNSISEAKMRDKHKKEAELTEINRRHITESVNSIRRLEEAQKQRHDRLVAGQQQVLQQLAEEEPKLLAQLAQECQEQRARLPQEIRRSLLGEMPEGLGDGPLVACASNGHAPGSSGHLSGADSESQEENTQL

[3] = molecular target: T3, 1-phosphatidylinositol 4,5-bisphosphate phosphodiesterase gamma-1 (Homo sapiens, UniProt P19174); experiment: Counterscreen for inhibitors of phospholipase C isozymes (PLC-B3): Fluorescence-based biochemical high throughput dose response assay to identify inhibitors of phospholipase C isozymes (PLC-gamma1).
T3 sequence (P19174 whole entry): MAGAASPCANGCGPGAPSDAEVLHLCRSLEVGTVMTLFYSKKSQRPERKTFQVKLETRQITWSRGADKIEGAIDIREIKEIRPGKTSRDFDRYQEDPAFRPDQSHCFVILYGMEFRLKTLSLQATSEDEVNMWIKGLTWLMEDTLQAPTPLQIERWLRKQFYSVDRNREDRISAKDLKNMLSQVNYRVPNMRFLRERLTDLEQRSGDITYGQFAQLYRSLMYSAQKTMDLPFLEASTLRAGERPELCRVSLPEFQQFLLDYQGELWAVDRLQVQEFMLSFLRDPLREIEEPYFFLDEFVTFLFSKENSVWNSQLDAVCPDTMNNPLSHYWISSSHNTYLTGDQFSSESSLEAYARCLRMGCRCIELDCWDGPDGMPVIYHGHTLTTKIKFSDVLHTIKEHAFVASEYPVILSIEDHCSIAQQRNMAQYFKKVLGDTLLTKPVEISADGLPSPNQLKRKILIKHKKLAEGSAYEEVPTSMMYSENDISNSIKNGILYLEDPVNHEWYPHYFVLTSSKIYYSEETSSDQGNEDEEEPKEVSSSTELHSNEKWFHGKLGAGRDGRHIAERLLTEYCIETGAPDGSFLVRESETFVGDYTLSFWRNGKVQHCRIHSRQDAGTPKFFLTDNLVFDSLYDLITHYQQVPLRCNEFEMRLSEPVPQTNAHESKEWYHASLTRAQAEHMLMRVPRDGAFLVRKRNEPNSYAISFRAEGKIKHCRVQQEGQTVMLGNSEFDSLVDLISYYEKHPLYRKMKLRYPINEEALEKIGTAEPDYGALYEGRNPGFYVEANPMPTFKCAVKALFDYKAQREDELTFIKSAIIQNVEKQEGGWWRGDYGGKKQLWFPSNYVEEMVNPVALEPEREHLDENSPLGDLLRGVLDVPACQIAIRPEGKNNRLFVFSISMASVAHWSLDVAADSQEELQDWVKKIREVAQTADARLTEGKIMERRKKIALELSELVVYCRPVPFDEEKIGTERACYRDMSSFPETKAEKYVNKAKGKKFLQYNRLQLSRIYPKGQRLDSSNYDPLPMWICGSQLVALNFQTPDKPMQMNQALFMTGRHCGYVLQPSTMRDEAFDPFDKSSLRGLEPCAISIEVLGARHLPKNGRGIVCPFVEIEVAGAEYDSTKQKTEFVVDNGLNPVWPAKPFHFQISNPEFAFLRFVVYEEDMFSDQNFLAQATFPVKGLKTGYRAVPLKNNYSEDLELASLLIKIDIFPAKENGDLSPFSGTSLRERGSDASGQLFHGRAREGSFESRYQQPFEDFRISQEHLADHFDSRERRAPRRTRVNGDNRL

[4] = molecular target: T4, Corticotropin-releasing factor receptor 2/Corticotropin-releasing factor-binding protein (Homo sapiens, UniProt P24387+Q13324); experiment: Dose Response confirmation of uHTS hits for small molecule antagonists of the CRF-binding protein and CRF-R2 receptor complex.; type: functional; details: read-out: IC50_Mean
T4 sequence (Q13324 whole entry): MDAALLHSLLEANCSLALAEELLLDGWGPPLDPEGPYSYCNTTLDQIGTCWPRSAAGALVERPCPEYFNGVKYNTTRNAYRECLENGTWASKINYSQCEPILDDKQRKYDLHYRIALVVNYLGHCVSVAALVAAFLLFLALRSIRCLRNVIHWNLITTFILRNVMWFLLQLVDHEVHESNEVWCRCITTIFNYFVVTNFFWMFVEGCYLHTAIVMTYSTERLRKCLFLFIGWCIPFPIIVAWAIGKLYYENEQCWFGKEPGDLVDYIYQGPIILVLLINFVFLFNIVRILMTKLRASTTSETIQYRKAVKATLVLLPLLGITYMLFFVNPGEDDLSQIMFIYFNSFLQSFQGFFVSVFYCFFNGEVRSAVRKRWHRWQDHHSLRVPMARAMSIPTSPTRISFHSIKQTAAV
T4 sequence (P24387 whole entry): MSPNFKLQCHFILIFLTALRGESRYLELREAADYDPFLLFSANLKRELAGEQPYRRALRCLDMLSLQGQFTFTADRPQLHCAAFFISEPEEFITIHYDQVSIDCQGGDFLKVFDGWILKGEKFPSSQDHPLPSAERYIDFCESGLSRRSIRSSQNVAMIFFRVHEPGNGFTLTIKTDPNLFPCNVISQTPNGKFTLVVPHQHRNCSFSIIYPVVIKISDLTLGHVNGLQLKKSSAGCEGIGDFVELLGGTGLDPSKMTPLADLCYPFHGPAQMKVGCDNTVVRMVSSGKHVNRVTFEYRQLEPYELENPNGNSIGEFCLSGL

[5] = molecular target: Voltage-dependent T-type calcium channel subunit alpha-1H (Homo sapiens, UniProt O95180); type: functional;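 also: channel activity triggered by adding a high calcium stimulation buffer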
[6] = molecular target: T4, Corticotropin-releasing factor receptor 2/Corticotropin-releasing factor-binding protein; experiment: activators of CRF receptor 2 with binding protein – uHTS hits, confirmation (AID 602473); type: functional; details: read-out: EC50_Mean

Kallikrein-7, sequence (P49862 whole entry): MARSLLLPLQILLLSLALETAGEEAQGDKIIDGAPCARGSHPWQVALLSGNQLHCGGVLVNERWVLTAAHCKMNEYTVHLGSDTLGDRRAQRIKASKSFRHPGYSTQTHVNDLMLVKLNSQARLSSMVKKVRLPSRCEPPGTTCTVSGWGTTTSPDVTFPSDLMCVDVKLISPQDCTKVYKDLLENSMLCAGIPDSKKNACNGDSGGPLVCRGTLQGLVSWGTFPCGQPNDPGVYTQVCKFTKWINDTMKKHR
Voltage-dependent T-type calcium channel subunit alpha-1H, sequence (O95180 whole entry): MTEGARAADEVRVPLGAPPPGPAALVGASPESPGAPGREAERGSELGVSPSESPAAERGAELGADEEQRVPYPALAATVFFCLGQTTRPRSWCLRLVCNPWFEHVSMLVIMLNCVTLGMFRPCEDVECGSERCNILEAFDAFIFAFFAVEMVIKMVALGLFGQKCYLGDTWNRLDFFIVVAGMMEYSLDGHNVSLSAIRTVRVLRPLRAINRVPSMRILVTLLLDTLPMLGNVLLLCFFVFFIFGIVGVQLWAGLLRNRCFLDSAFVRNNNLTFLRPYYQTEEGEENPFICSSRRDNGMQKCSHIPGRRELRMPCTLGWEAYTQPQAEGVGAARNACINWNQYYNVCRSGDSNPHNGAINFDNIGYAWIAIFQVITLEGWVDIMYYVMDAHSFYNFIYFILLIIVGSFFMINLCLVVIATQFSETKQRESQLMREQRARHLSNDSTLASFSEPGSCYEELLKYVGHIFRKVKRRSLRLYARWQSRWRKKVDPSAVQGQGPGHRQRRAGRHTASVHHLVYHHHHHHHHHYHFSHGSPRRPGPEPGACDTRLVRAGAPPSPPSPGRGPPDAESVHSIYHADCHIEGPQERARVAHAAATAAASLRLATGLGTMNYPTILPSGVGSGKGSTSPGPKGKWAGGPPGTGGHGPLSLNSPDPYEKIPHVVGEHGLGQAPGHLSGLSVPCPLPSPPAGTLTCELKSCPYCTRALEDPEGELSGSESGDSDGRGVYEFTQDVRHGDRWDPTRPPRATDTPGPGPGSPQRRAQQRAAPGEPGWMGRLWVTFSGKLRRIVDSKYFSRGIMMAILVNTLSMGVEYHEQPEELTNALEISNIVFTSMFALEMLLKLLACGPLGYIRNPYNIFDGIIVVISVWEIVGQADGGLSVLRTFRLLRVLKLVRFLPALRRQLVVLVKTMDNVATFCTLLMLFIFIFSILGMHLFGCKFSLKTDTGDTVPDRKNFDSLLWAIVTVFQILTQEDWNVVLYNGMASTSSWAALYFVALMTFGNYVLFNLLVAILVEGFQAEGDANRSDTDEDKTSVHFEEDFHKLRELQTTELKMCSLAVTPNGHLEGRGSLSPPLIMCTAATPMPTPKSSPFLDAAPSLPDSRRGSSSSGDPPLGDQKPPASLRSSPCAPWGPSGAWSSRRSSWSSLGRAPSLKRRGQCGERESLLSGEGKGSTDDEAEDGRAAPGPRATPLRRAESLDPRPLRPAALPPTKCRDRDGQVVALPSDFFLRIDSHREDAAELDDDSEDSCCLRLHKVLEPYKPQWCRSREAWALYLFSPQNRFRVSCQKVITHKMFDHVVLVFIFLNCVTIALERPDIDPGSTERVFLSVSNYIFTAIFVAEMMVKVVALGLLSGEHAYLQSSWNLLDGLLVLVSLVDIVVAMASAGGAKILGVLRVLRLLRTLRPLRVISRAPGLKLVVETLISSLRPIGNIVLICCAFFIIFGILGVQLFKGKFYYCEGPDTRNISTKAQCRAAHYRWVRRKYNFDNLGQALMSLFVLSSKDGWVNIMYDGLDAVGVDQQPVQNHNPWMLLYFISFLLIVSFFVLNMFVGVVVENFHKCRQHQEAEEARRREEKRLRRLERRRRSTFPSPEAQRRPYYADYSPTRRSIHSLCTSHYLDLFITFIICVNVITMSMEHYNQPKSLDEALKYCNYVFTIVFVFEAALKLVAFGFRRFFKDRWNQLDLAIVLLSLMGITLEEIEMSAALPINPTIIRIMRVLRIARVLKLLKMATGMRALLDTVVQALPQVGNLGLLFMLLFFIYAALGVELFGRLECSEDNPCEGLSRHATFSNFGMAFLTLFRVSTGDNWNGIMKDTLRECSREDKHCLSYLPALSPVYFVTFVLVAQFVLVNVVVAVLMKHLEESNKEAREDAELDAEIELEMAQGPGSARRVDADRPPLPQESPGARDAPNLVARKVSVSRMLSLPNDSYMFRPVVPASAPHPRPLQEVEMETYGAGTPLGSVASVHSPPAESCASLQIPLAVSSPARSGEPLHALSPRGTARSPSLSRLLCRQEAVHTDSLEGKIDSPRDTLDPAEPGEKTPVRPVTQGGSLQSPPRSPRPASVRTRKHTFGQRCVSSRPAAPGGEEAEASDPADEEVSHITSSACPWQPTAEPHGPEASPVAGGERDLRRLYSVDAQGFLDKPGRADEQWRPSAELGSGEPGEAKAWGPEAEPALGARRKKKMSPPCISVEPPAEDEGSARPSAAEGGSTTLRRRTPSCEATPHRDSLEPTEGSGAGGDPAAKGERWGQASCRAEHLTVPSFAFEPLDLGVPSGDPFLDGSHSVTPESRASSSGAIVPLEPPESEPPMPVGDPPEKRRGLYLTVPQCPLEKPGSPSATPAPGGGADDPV
Induced myeloid leukemia cell differentiation protein Mcl-1, sequence (Q07820 whole entry): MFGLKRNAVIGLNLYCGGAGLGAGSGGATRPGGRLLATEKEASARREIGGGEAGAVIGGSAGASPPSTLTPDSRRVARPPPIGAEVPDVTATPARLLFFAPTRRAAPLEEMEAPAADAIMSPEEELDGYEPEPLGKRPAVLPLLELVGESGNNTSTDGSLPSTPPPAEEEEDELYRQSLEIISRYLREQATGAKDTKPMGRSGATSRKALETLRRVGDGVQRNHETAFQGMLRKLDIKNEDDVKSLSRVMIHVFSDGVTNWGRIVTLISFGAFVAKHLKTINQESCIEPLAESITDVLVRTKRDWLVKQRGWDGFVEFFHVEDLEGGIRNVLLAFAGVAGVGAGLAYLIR

Compound: Cc1ccc(-c2cc(C(=O)OCC(=O)N(C)C3CCS(=O)(=O)C3)c3ccccc3n2)o1 (stereo not given)
IC50 [1]: 5.12 µM (active) | EC50 (Kallikrein-7): 6.97 µM (active)

Compound: O=S(=O)(c1ccccc1)c1cnn(-c2ccccc2)c1-c1ccc(F)cc1
IC50 [2]: > 123 µM (inactive) | IC50 [3]: > 123 µM (inactive) | IC50 [4]: > 47.1 µM (inactive) | EC50 [5]: 5.16 µM (active) | EC50 [6]: > 53 µM (inactive)

Compound: CC(=O)Nc1ccc(-c2nc3ccc(NC(C)=O)cc3o2)cc1
EC50 (Kallikrein-7): > 69.5 µM (inactive)

Results, then the molecule that gave them:

AC50 (Caspase-6): 9.2 µM (active)
Compound: O=C(CSc1ccsc1[N+](=O)[O-])NCc1ccco1

EC50 (Kallikrein-7): 7.57 µM (active)
Compound: COc1ccccc1CC(=O)Nc1ccc(NC(=O)c2cccs2)cc1
